This is an account of results in PubChem BioAssay (NCI).

Test systems include 786-0 renal; A498 renal; CCRF-CEM leukemia; HCT-116 colon; IGROV1 ovarian; MDA-MB-231 breast; OVCAR-3 ovarian; OVCAR-5 ovarian; PC-3 prostate; SK-MEL-5 melanoma; SK-OV-3 ovarian; SN12C renal; SNB-19 CNS; UACC-257 melanoma; SR leukemia.
Holding throughout (assay): NCI tumour cell line growth inhibition, 48 h

Each structure is given as a SMILES string.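 In this assay, cells in 96-well plates receive the compound at five concentrations for 48 hours. Endpoints are linearly interpolated between the surrounding concentrations. TGI: total growth inhibition.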

`COC(=O)c1c(O)ccc2c1c1c(n2-c2ccc(OC)cc2)C(=O)c2ccccc2C1=O`: the TGI in the assay on 786-0 renal was 29.1 µM; with A498 renal it was greater than 100 µM; in the assay with CCRF-CEM leukemia, greater than 100 µM; with HCT-116 colon it was 30.6 µM; in the assay with IGROV1 ovarian, 91.6 µM; with MDA-MB-231 breast, 32.7 µM. The TGI in the assay with OVCAR-3 ovarian was 65.2 µM; with OVCAR-5 ovarian, 75.4 µM; with PC-3 prostate, 74.1 µM; in the assay on SK-MEL-5 melanoma it was greater than 100 µM; in the assay with SK-OV-3 ovarian it was 39.2 µM; in the assay on SN12C renal it was greater than 100 µM. For the same molecule, the TGI in the assay with SNB-19 CNS was 44.7 µM; in the assay on UACC-257 melanoma it was greater than 100 µM.

For `CN(C)c1ccc(N=Nc2cccc3ncccc23)cc1`, the TGI in the assay on 786-0 renal, in the assay on CCRF-CEM leukemia, with HCT-116 colon, in the assay with IGROV1 ovarian, with MDA-MB-231 breast and in the assay with OVCAR-3 ovarian was greater than 100 µM in each case. Besides, the TGI in the assay with PC-3 prostate is greater than 100 µM; in the assay on SK-MEL-5 melanoma, 61.2 µM; in the assay on SK-OV-3 ovarian, greater than 100 µM; in the assay with SN12C renal, greater than 100 µM; in the assay with SNB-19 CNS, greater than 100 µM; in the assay on SR leukemia it was greater than 100 µM. In addition, the TGI with UACC-257 melanoma is greater than 100 µM.

Consider `COc1ccc2c(c1)N=C1CSC(c3c(Cl)cccc3[N+](=O)[O-])N1C2` (centres undefined), for which the TGI in the assay on 786-0 renal, in the assay on HCT-116 colon, in the assay with IGROV1 ovarian, in the assay on MDA-MB-231 breast, in the assay on OVCAR-5 ovarian and with PC-3 prostate was greater than 100 µM in each case. The TGI in the assay with SK-MEL-5 melanoma was 39.5 µM; in the assay on SK-OV-3 ovarian, greater than 100 µM; in the assay with SN12C renal, greater than 100 µM; with SNB-19 CNS it was greater than 100 µM; with UACC-257 melanoma, greater than 100 µM.

In the case of `N#C/C(=C\c1ccc(Br)cc1)c1nc(-c2cc3ccccc3oc2=O)cs1`, the TGI in the assay with 786-0 renal was greater than 50 µM; in the assay on CCRF-CEM leukemia, greater than 50 µM; in the assay on HCT-116 colon, greater than 50 µM; in the assay on IGROV1 ovarian, greater than 50 µM; in the assay with MDA-MB-231 breast, 20.6 µM; in the assay with OVCAR-5 ovarian it was greater than 50 µM. Further, the TGI in the assay with PC-3 prostate was greater than 50 µM; with SK-MEL-5 melanoma, greater than 50 µM; in the assay on SK-OV-3 ovarian it was greater than 50 µM; with SN12C renal, greater than 50 µM; in the assay on SNB-19 CNS, 24.1 µM; with SR leukemia it was greater than 50 µM. In the assay on UACC-257 melanoma, this molecule had a TGI of 33.2 µM.

As for `CCN(CC)CCC(=O)c1ccc(Oc2ccccc2)cc1`, the TGI was 29.3 µM in the assay with 786-0 renal; 51.3 µM with CCRF-CEM leukemia; 36.1 µM in the assay with HCT-116 colon; 33.3 µM with IGROV1 ovarian; 36.7 µM in the assay with MDA-MB-231 breast; 45.3 µM in the assay with OVCAR-3 ovarian. The TGI was 46.4 µM in the assay with OVCAR-5 ovarian; greater than 100 µM in the assay on PC-3 prostate; greater than 100 µM in the assay on SK-OV-3 ovarian; 31.4 µM in the assay with SN12C renal; 38.2 µM with SNB-19 CNS; greater than 100 µM in the assay on SR leukemia. Moreover, the TGI with UACC-257 melanoma came to 33.5 µM.

On to `CC(C)CCCC(C)[C@H]1CC[C@H]2[C@@H]3CC[C@H]4C[C@@H](CCC=C(c5cc(Cl)c(O)c(C(=O)O)c5)c5cc(Cl)c(O)c(C(=O)O)c5)CC[C@]4(C)[C@H]3CC[C@]12C` (some centres undefined) (tested in a mixture with another compound), for which the TGI in the assay with 786-0 renal, in the assay on A498 renal, in the assay on CCRF-CEM leukemia, in the assay with HCT-116 colon, in the assay on IGROV1 ovarian and in the assay on MDA-MB-231 breast was greater than 50 µM in each case. Further, the TGI in the assay with OVCAR-3 ovarian, in the assay with OVCAR-5 ovarian, with PC-3 prostate, with SK-MEL-5 melanoma, in the assay on SK-OV-3 ovarian and in the assay on SN12C renal was greater than 50 µM in each case. In the assay with SNB-19 CNS, this molecule displayed a TGI greater than 50 µM.

With `Nc1ccccc1OCc1cc(=O)c(OCc2ccccc2)co1`, the TGI in the assay with 786-0 renal is 76.5 µM; in the assay with CCRF-CEM leukemia it was greater than 100 µM; in the assay with HCT-116 colon, greater than 100 µM; with MDA-MB-231 breast it was 55.8 µM; in the assay on OVCAR-3 ovarian, greater than 100 µM; with OVCAR-5 ovarian it was greater than 100 µM. In addition, the TGI with PC-3 prostate is greater than 100 µM; in the assay on SK-MEL-5 melanoma it was greater than 100 µM; in the assay on SK-OV-3 ovarian, 83.7 µM; in the assay on SN12C renal it was 0.823 µM; in the assay on SNB-19 CNS, greater than 100 µM; in the assay on SR leukemia it was greater than 100 µM. In the assay with UACC-257 melanoma, this molecule returned a TGI of 81.7 µM.

As for `Cc1csc2nc3[nH]ncc3c(=O)n12`, the TGI in the assay on 786-0 renal, with CCRF-CEM leukemia, in the assay on HCT-116 colon, with IGROV1 ovarian, in the assay on MDA-MB-231 breast and in the assay with OVCAR-3 ovarian was greater than 100 µM in each case. The TGI in the assay on OVCAR-5 ovarian, with PC-3 prostate, in the assay with SK-MEL-5 melanoma, in the assay on SK-OV-3 ovarian, in the assay on SN12C renal and in the assay with SNB-19 CNS was greater than 100 µM each time. Besides, the TGI in the assay with SR leukemia and with UACC-257 melanoma was greater than 100 µM each time.

As for `CO/N=C(/C(=O)OC)c1ccccc1COc1cccc(C(F)(F)F)c1`, the TGI was greater than 100 µM with 786-0 renal; greater than 100 µM with A498 renal; 65.1 µM in the assay with CCRF-CEM leukemia; greater than 100 µM in the assay with HCT-116 colon; greater than 100 µM in the assay with IGROV1 ovarian; greater than 100 µM with MDA-MB-231 breast. The TGI with OVCAR-3 ovarian was 93.7 µM; in the assay on OVCAR-5 ovarian it was greater than 100 µM; with PC-3 prostate, greater than 100 µM; with SK-MEL-5 melanoma, 17.9 µM; in the assay with SK-OV-3 ovarian, greater than 100 µM; with SN12C renal it was greater than 100 µM. Further, the TGI with SNB-19 CNS was greater than 100 µM; in the assay with UACC-257 melanoma, 52.6 µM.

For the molecule `COc1cc(/C=C2\CC3C4CC[C@H]5C[C@@H](O)CC[C@]5(C)C4CC[C@]3(C)C2=O)cc(OC)c1OC` (some centres undefined), the TGI is greater than 100 µM with 786-0 renal; 75.5 µM in the assay on A498 renal; greater than 100 µM in the assay on CCRF-CEM leukemia; 43.6 µM in the assay with HCT-116 colon; greater than 100 µM in the assay with IGROV1 ovarian; greater than 100 µM in the assay on MDA-MB-231 breast. For the same molecule, the TGI was greater than 100 µM with OVCAR-5 ovarian; greater than 100 µM in the assay with PC-3 prostate; 22 µM in the assay with SK-MEL-5 melanoma; 52.9 µM in the assay with SK-OV-3 ovarian; 95.3 µM with SN12C renal; greater than 100 µM with SNB-19 CNS. The TGI with UACC-257 melanoma was greater than 100 µM.

As to `N/C(COc1ccc(Cl)cc1)=N\NC(=O)c1ccncc1`, the TGI in the assay with 786-0 renal, in the assay on A498 renal, in the assay with CCRF-CEM leukemia, with HCT-116 colon, in the assay with IGROV1 ovarian and in the assay on MDA-MB-231 breast was greater than 100 µM each time. The TGI with OVCAR-3 ovarian, with OVCAR-5 ovarian, in the assay on PC-3 prostate, in the assay with SK-OV-3 ovarian, in the assay on SN12C renal and in the assay on SNB-19 CNS was greater than 100 µM each time. In addition, the TGI in the assay with UACC-257 melanoma was greater than 100 µM.

As for `COc1ccc2c(c1)CCCN1Cc3ccccc3CC21` (centres undefined), the TGI in the assay with 786-0 renal was greater than 100 µM; in the assay on A498 renal, 96.8 µM; with CCRF-CEM leukemia, greater than 100 µM; in the assay with HCT-116 colon it was greater than 100 µM; in the assay with IGROV1 ovarian it was greater than 100 µM; in the assay on MDA-MB-231 breast it was greater than 100 µM. Also, the TGI in the assay with OVCAR-3 ovarian was greater than 100 µM; in the assay with OVCAR-5 ovarian, greater than 100 µM; in the assay with PC-3 prostate it was greater than 100 µM; in the assay with SK-MEL-5 melanoma, 56.7 µM; in the assay with SK-OV-3 ovarian, greater than 100 µM; in the assay with SN12C renal it was greater than 100 µM. The TGI in the assay on SNB-19 CNS and in the assay with UACC-257 melanoma was greater than 100 µM each time.

As to `Fc1ccc(Nc2nnc(-c3ccccn3)s2)cc1`, the TGI in the assay with 786-0 renal, with A498 renal, with CCRF-CEM leukemia, in the assay on HCT-116 colon, with IGROV1 ovarian and in the assay with MDA-MB-231 breast was greater than 100 µM throughout. Moreover, the TGI with OVCAR-3 ovarian, with OVCAR-5 ovarian, in the assay with PC-3 prostate, in the assay with SK-MEL-5 melanoma, with SK-OV-3 ovarian and with SN12C renal was greater than 100 µM each time. The TGI with SNB-19 CNS and in the assay on UACC-257 melanoma was greater than 100 µM in each case.

With `CC[N+]1(C)CCC(O)(/C=C/c2ccc(Cl)cc2)C(C(=O)/C=C/c2ccc(Cl)cc2)C1` (centres undefined), the TGI with 786-0 renal was greater than 26.5 µM; in the assay with A498 renal it was 30.2 µM; in the assay with CCRF-CEM leukemia it was 3.85 µM; with HCT-116 colon, 29.1 µM; in the assay with IGROV1 ovarian, greater than 22.4 µM; in the assay with MDA-MB-231 breast, greater than 31.5 µM. Besides, the TGI with OVCAR-3 ovarian is greater than 61 µM; in the assay on OVCAR-5 ovarian it was greater than 53.7 µM; with PC-3 prostate, 27.7 µM; in the assay on SK-MEL-5 melanoma it was greater than 45.8 µM; in the assay on SK-OV-3 ovarian, 36.8 µM; with SN12C renal, 27.1 µM. The TGI with SNB-19 CNS is 17.4 µM; in the assay with UACC-257 melanoma it was greater than 52 µM.

For `[C-]#[N+]C1(C(=O)OCC)CC1`, the TGI in the assay with 786-0 renal, with A498 renal, in the assay with CCRF-CEM leukemia, in the assay on HCT-116 colon, in the assay with IGROV1 ovarian and with OVCAR-3 ovarian was greater than 100 µM throughout. Also, the TGI with OVCAR-5 ovarian, with PC-3 prostate, in the assay with SK-MEL-5 melanoma, in the assay with SN12C renal, in the assay on SNB-19 CNS and with SR leukemia was greater than 100 µM each time. In the assay with UACC-257 melanoma, this molecule yielded a TGI greater than 100 µM.
